From patent US6803186B2, “Compositions and methods for increasing amino acid absorption in mammals” (The IAMS Company, priority 2001, dated 2004)
Square brackets hold non-standard residues; d marks the D form. Peptide text beside a SMILES is read from it. Sar = CNCC(=O)O

Target: T1, canine PepT1 (cPepT1) (Canis lupus familiaris, UniProt Q8WMX5)
T1 construct: endogenous in cells; host or cells: MDCK (Madin-Darby Canine Kidney) cells, whole-cell [3H]-GlySar uptake
T1 sequence (Q8WMX5 1-708): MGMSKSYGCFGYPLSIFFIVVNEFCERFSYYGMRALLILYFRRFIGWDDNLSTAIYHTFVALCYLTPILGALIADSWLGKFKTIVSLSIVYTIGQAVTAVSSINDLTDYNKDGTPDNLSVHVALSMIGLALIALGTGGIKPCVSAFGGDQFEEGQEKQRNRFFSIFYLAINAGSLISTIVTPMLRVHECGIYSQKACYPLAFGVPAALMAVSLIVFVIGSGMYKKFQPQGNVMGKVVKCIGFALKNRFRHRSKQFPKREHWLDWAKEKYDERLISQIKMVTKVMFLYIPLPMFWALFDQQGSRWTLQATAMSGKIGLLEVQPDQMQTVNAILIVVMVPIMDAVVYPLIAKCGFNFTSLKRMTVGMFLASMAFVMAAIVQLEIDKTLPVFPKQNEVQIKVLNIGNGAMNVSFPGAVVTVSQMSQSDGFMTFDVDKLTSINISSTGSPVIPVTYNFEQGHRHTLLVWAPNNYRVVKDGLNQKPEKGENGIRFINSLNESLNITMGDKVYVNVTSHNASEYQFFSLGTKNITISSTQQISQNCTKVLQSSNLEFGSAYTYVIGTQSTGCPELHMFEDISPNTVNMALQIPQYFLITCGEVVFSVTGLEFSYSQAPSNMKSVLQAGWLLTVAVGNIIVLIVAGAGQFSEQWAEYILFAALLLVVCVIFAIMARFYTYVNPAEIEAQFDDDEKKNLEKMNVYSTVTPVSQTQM
Assay: Characterization of GlySar uptake by MDCK cells (Km, pH gradient, time course)
Assay type: cell-based
Details: for GlySar uptake in pH 6.0 buffer relative to pH 7.4 buffer: 100 μM GlySar
Protocol: Potential expression of PepT1 transport activity (H^+-dependent, dipeptide inhibitable, low-affinity dipeptide transport) by confluent MDCK cells was evaluated using whole-cell transport techniques and glycylsarcosine (GlySar) as a model dipeptide substrate. Cells were seeded at 60,000 cells/cm^2 into 24-well trays that had been coated with rat tail collagen or poly-L-lysine and cultured ([…]:5% CO2 at 37° C.) for 3 d in media consisting of Dulbecco's Modified Eagle Medium/10% fetal calf serum/1% antimicrobial antibacterial medium. Absorption (pmols/mg protein) of [^3H]-glycyl-L-sarcosine (GlySar, 6 mCi/mL, Moravek Biochemicals, Brea, Calif.) was determined using the 24-well cluster tray method and representative scintillation counting. Before transport, cells were incubated at 37° C. for 30 min in 25 mM Hepes/Tris (pH 7.5), 140 mM NaCl, 5.4 mM KCl, 1.8 mM CaCl2, 0.8 mM MgSO4, and 5 mM glucose (uptake buffer) to normalize intracellular amino acid and peptide pools. Transport was initiated by the addition of 0.25 mL of uptake buffer that contained 2.88 μm GlySar. After 30 min of uptake at 37° C., transport was terminated by rapid washing of cells with 4×2 mL 4° C. uptake buffer. Cellular protein was precipitated with 10% trichloroacetic acid and the supernatant recovered and counted to determine radioactivity (^3H) content. Cellular protein was then solubilized in 0.2 N NaOH and 0.2% SDS and quantified by the Lowry procedure, using bovine serum albumin as a standard. The amount of H^+-dependent GlySar absorbed was calculated as the difference between uptake in pH 6.0 and pH 7.5 uptake buffers. The amount of competitor substrate-inhibitable GlySar uptake was calculated as the quotient of GlySar uptake in the absence and presence of 10 mM competitor substrate (dipeptide or amino acid) multiplied by 100%.
To preliminarily characterize the kinetic parameters of peptide transport by MDCK cells, the uptake of GlySar in media that contained pH 6.0 and 0.00064, 0.0025, 0.010, 0.04, 0.160, 0.640, 2.56, or 10.2 mM of GlySar was measured (FIG. 6). […] Collectively, these characteristics of GlySar uptake are consistent with functional activity of PepT1 expressed by other species, as opposed to high-affinity, H^+-dependent uptake by PepT2 (μm Km).
Using the maximal uptake-stimulating culture parameters determined in Experiment 3, the effect of an extracellular-to-intracellular pH gradient on GlySar uptake was further evaluated to determine a pH level at which maximal GlySar uptake could be achieved, but which would replicate physiologic conditions (FIG. 10). As expected, the presence of a pH gradient stimulated (P<0.001) H^+-dependent GlySar uptake, in a quadratic (P<0.01) fashion. Uptake at pH 5.5 or 6.0 was about 2.7 times greater than that achieved at pH 7.5. […] Accordingly, the use pH 6.0 buffers for the characterization of H^+-dependent GlySar uptake was incorporated into the standard experimental conditions.
To determine the appropriate time period to measure initial (linear) rates of GlySar uptake, a by-minute time-course experiment was performed. […] GlySar uptake in pH 6.0 buffer at 3.75, 7.5, 15, 30, 60 and 120 min was about 2, 2.1, 2.25, 2.65, 2.79, and 2.62 times more (P<0.001), respectively, than uptake from pH 7.4 buffer. Because uptake was proportional to time of uptake through 1 h, future experiments were conducted using a 30-min time period.
To confirm that H^+-dependent GlySar uptake was saturable, and therefore mediated, the uptake of GlySar from pH 6.0 and 7.4 uptake buffers containing 0.025, 0.1, 0.4, 1.6, 6.4, or 25.6 mM GlySar was evaluated (FIG. 12). Uptake of GlySar was greatest (P<0.001) from the pH 6.0 buffers, at all concentrations.

Structure (SMILES): CN(CC(=O)O)C(=O)CN [GlySar, glycylsarcosine] (H-Gly-[Sar]-OH)
- H+-dependent GlySar uptake at pH 5.5 or 6.0 relative to pH 7.5 (2.88 μM GlySar, LHM 2 days (FIG. 10)): about 2.7 times
- GlySar uptake in pH 6.0 buffer relative to pH 7.4 buffer (3.75 min): about 2 times
- GlySar uptake in pH 6.0 buffer relative to pH 7.4 buffer (7.5 min): ~2.1 times
- GlySar uptake in pH 6.0 buffer relative to pH 7.4 buffer (15 min): ~2.25 times
- GlySar uptake in pH 6.0 buffer relative to pH 7.4 buffer (30 min): ~2.65 times
- GlySar uptake in pH 6.0 buffer relative to pH 7.4 buffer (60 min): ~2.79 times
- GlySar uptake in pH 6.0 buffer relative to pH 7.4 buffer (120 min): ~2.62 times
- GlySar uptake at extracellular pH 6.0 relative to pH 7.5 medium (cells grown on poly-L-lysine): 1.7 fold
- GlySar uptake at extracellular pH 6.0 relative to pH 7.5 medium (cells plated on collagen): 2.3 fold
